From patent US20260297060A1, “COMPOUNDS FOR THE DEGRADATION OF MUTANT BRAF” (C4 THERAPEUTICS, INC., priority 2023, published 2026)
Like-named read-outs stand apart in the source and are kept apart here.

Tests used:
[1] = Example 9 pharmacokinetics assay for the PK and PD study Part I, II and III (plasma, tumor, liver); assay type: in vivo, BALB/c nude mice; conditions: mouse, po, 10 mg/kg, p.o., single dose, ± SEM
Protocol: For the PK and PD study Part I, agents were administered to BALB/c nude mice bearing A375 human melanoma xenografts tumors. Dabrafenib, Compound 218 and Compound 157 were dosed via p.o. once on day 1. Dabrafenib was dosed at 100 mg/kg. Compound 218 and Compound 157 were dosed at 10 mg/kg.
For the PK and PD study Part II, agents were administered to BALB/c nude mice bearing A375 human melanoma xenografts tumors. Compound 133, Compound 144 and Compound 198 were dosed at 10 mg/kg via p.o. once on day 1.
For the PK and PD study Part III, agent was administered to BALB/c nude mice bearing A375 human melanoma xenografts tumors. Compound 204 were dosed at 10 mg/kg via p.o. once on day 1.
(§1) The plasma samples were collected at predetermined time points for PK analysis. The mice were euthanized at predetermined time points post the treatment. The blood samples were collected into the 1.5 mL Eppendorf tubes containing 15 μL of 0.5 M EDTA-K2. And then the anticoagulant blood samples were centrifuged at 2,500 g at 4° C. for 15 minutes. The plasma samples were separated into 2 aliquots. The 1st was used for PK analysis, and the 2nd served as backup. The samples were stored at −80° C. before bioanalysis.
The tumor samples were collected at predetermined time points for PK and WB analysis. The tumor was dissected out and split into 3 parts. The 1st part was used for PK analysis, the 2nd part was used for WB analysis and the last one served as backup for study. The samples were transferred into pre-labeled tubes and quickly froze in liquid nitrogen within 2 minutes after dissection. The samples were stored at −80° C. before bioanalysis.
(§2) Liver samples were collected at predetermined time points for PK analysis. The left lobe of the liver was dissected out and split into 2 parts. The 1st part was used for PK analysis and the 2nd part served as the backup for the study. The samples were transferred into pre-labeled tubes and quickly froze in liquid nitrogen within 2 minutes after dissection. The samples were stored at −80° C. before bioanalysis.
The harvested plasma, tumor and liver samples were processed for pharmacokinetics analysis by LC-MS/MS with a concentration range of 5.00-10,000 ng/mL for Compound 218, Compound 157 and Compound 133 in plasma, 0.500-1,000 ng/ml for Compound 218 in liver and tumor homogenate, 0.200-400 ng/mL for Compound 157, Dabrafenib and Compound 133 in liver and tumor homogenate, 0.500-1000 ng/mL for Dabrafenib and Compound 204 in plasma, 0.200-200 ng/mL for Compound 204 in liver and tumor homogenate, 20.0-20,000 ng/mL for Compound 144 and Compound 198 in plasma, 1.00-1,000 ng/mL for Compound 144 and Compound 198 in liver and tumor homogenate.

[2] = Example 9 pharmacokinetics assay for efficacy study Part I and II (plasma, liver); assay type: in vivo, BALB/c nude mice; conditions: mouse, po, 10 mg/kg, p.o., BID × 14 days, 6 h following treatment, ± SEM
Protocol: For efficacy study Part I, agents were tested in the A375 human melanoma xenografts. Compound 218 and Compound 157 were administered to BALB/c nude mice bearing A375 xenografts from day 0 and dosed twice a day (BID) for 14 days. Compound 218 and Compound 157 were dosed at 10 mg/kg via p.o.. Dabrafenib was administered from day 1 daily (QD) for 14 days and dosed at 100 mg/kg via p.o..
For efficacy study Part II, agents were tested in the A375 human melanoma xenografts model. Compound 133, Compound 144 and Compound 198 were administered to BALB/c nude mice bearing A375 xenografts from day 0 and dosed twice a day (BID) for 14 days. Compound 133, Compound 144 and Compound 198 were dosed at 10 mg/kg via p.o..
as §1, §2
The harvested plasma and liver samples were processed for pharmacokinetics analysis by LC-MS/MS with a concentration range of 1.00-1,000 ng/mL for Dabrafenib in plasma and liver homogenate, 10.0-10,000 ng/mL for Compound 218, Compound 157, Compound 133, Compound 144 and Compound 198 in plasma and liver homogenate.

[3] = liver, read-out: Mean Concentration in Liver
[4] = plasma, read-out: Mean Concentration in Plasma
[5] = tumor, read-out: Mean Concentration in Tumor

Row | SMILES | concentration at 6 h [1, 3] [ng/g] | concentration at 12 h [1, 3] [ng/g] | concentration at 1 h [1, 4] [ng/mL] | concentration at 6 h [1, 4] [ng/mL] | concentration at 12 h [1, 4] [ng/mL] | concentration at 1 h [1, 5] [ng/g] | concentration at 6 h [1, 5] [ng/g] | concentration at 12 h [1, 5] [ng/g] | concentration at 6 h [2, 3] [ng/g] | concentration at 6 h [2, 4] [ng/mL] | concentration at 24 h [1, 4] [ng/mL] | concentration at 24 h [1, 5] [ng/g]
1 | CCN(C)S(=O)(=O)Nc1ccc(F)c(Oc2ccc3ncn(C4CC5(C4)CN(C4CCC(c6cc7c(cc6F)c(N6CCC(=O)NC6=O)nn7C)CC4)C5)c(=O)c3c2)c1C#N (single isomer, unassigned) [Compound 204, 6-[2-cyano-3-[[ethyl(methyl)sulfamoyl]amino]-6-fluoro-phenoxy]-3-[2-[4-[3-(2,4-dioxohexahydropyrimidin-1-yl)-5-fluoro-1-methyl-indazol-6-yl]cyclohexyl]-2-azaspiro[3.3]heptan-6-yl]-4-oxo-quinazoline] | 606 ± 73.4 | 291 ± 103 | 2070 ± 407 | 104 ± 6.18 | 32.9 ± 12.1 | 74.7 ± 16.5 | 112 ± 11 | 45 ± 9.93 | – | – | – | –
2 | CCN(C)S(=O)(=O)Nc1ccc(F)c(Oc2ccc3ncc(OC4CC5(CCN(C6CCC(c7cc8c(cc7F)c(N7CCC(=O)NC7=O)nn8C)CC6)CC5)C4)nc3c2)c1C#N (single isomer, unassigned) [Compound 218, 7-[2-cyano-3-[[ethyl(methyl)sulfamoyl]amino]-6-fluoro-phenoxy]-2-[[7-[4-[3-(2,4-dioxohexahydropyrimidin-1-yl)-5-fluoro-1-methyl-indazol-6-yl]cyclohexyl]-7-azaspiro[3.5]nonan-2-yl]oxy]quinoxaline] | 5710 ± 300 | 972 ± 40.9 | 6310 ± 978 | 1750 ± 96.1 | 206 ± 11.5 | 1850 ± 164 | 1360 ± 21.9 | 268 ± 26.7 | 5640 ± 588 | 2270 ± 201 | 6.2 ± 3.47 | 13.4 ± 4.31
3 | CCN(C)S(=O)(=O)Nc1ccc(F)c(Oc2ccc3ncn(C4CC5(CCN(C6CC7(CCN(c8cc9c(cc8F)c(N8CCC(=O)NC8=O)nn9C)CC7)C6)CC5)C4)c(=O)c3c2)c1C#N (centres unmarked) [Compound 198, 6-[2-cyano-3-[[ethyl(methyl)sulfamoyl]amino]-6-fluoro-phenoxy]-3-[7-[7-[3-(2,4-dioxohexahydropyrimidin-1-yl)-5-fluoro-1-methyl-indazol-6-yl]-7-azaspiro[3.5]nonan-2-yl]-7-azaspiro[3.5]nonan-2-yl]-4-oxo-quinazoline] | 2240 ± 416 | 1020 ± 177 | 2430 ± 91.7 | 2670 ± 117 | 1700 ± 172 | 441 ± 38.8 | 1120 ± 28.5 | 776 ± 107 | 3320 ± 479 | 7640 ± 799 | 573 ± 94.2 | 383 ± 128

Other lines, results leading:

Row | concentration at 6 h [1, 3] [ng/g] | concentration at 12 h [1, 3] [ng/g] | concentration at 1 h [1, 4] [ng/mL] | concentration at 6 h [1, 4] [ng/mL] | concentration at 12 h [1, 4] [ng/mL] | concentration at 1 h [1, 5] [ng/g] | concentration at 6 h [1, 5] [ng/g] | concentration at 12 h [1, 5] [ng/g] | concentration at 6 h [2, 3] [ng/g] | concentration at 6 h [2, 4] [ng/mL] | concentration at 24 h [1, 4] [ng/mL] | concentration at 24 h [1, 5] [ng/g] | SMILES
4 | 2030 ± 179 | 503 ± 207 | 8880 ± 604 | 3460 ± 69.8 | 733 ± 348 | 764 ± 122 | 686 ± 6.23 | 316 ± 172 | 1910 ± 169 | 5070 ± 270 | 23.4 ± 5.56 | 41.7 ± 26.4 | Cn1nc(N2CCC(=O)NC2=O)c2cc(F)c(N3CC4(CC(N5CCC6(CC5)C[C@@H](n5cnc7ccc(Oc8c(F)ccc(NS(=O)(=O)N9CC[C@@H](F)C9)c8C#N)cc7c5=O)CO6)C4)C3)cc21 [Compound 133, (3R)-N-[2-cyano-3-[3-[(3R)-8-[2-[3-(2,4-dioxohexahydropyrimidin-1-yl)-5-fluoro-1-methyl-indazol-6-yl]-2-azaspiro[3.3]heptan-6-yl]-1-oxa-8-azaspiro[4.5]decan-3-yl]-4-oxo-quinazolin-6-yl]oxy-4-fluoro-phenyl]-3-fluoro-pyrrolidine-1-sulfonamide]
5 | 1890 ± 584 | 873 ± 234 | 11600 ± 2260 | 6220 ± 1880 | 1240 ± 395 | 946 ± 172 | 1180 ± 406 | 616 ± 127 | 2470 ± 252 | 14700 ± 2220 | 143 ± 15.4 | 183 ± 45.4 | CO[C@@H]1CCN(S(=O)(=O)Nc2ccc(F)c(Oc3ccc4ncn([C@H]5COC6(CCN(C7CC8(C7)CN(c7cc9c(cc7F)c(N7CCC(=O)NC7=O)nn9C)C8)CC6)C5)c(=O)c4c3)c2C#N)C1 [Compound 144, (3R)-N-[2-cyano-3-[3-[(3R)-8-[2-[3-(2,4-dioxohexahydropyrimidin-1-yl)-5-fluoro-1-methyl-indazol-6-yl]-2-azaspiro[3.3]heptan-6-yl]-1-oxa-8-azaspiro[4.5]decan-3-yl]-4-oxo-quinazolin-6-yl]oxy-4-fluoro-phenyl]-3-methoxy-pyrrolidine-1-sulfonamide]
6 | 2000 ± 132 | 1320 ± 233 | 14700 ± 2000 | 14700 ± 1560 | 5420 ± 1400 | 1460 ± 376 | 1990 ± 120 | 1470 ± 329 | 2450 ± 217 | 12500 ± 745 | 161 ± 40.1 | 183 ± 137 | CO[C@H]1CCN(S(=O)(=O)Nc2ccc(F)c(Oc3ccc4ncn([C@H]5COC6(CCN(C7CC8(C7)CN(c7cc9c(cc7F)c(N7CCC(=O)NC7=O)nn9C)C8)CC6)C5)c(=O)c4c3)c2C#N)C1 [Compound 157, (3S)-N-[2-cyano-3-[3-[(3R)-8-[2-[3-(2,4-dioxohexahydropyrimidin-1-yl)-5-fluoro-1-methyl-indazol-6-yl]-2-azaspiro[3.3]heptan-6-yl]-1-oxa-8-azaspiro[4.5]decan-3-yl]-4-oxo-quinazolin-6-yl]oxy-4-fluoro-phenyl]-3-methoxy-pyrrolidine-1-sulfonamide]
